Assay results from PMC9445589, “Apolipoprotein E mimetic peptide COG1410 combats pandrug-resistant Acinetobacter baumannii” (Frontiers in Microbiology, 2022).
≈ marks a conversion by molar mass, not a printed value. Non-standard residues stand in square brackets, D forms with d. Residues, ends and D or L forms follow the SMILES beside them. Aib = CC(C)(N)C(=O)O

Legend:
[1] = system: MDR Citrobacter freundii 7–83; settings: microdilution method in the corresponding broth
[2] = system: Mycobacterium smegmatis MC^2155; settings: Mycobacterium MC^2155
A. baumannii YQ4 [3] = experiment: antibacterial activity (LC99.9) in PBS or 50% pooled human plasma; type: cell-based, Acinetobacter baumannii; settings: 2 h, 37°C
Description: The antibacterial activity of COG1410 in plasma was performed as described previously (De Breij et al., [2018]). Briefly, the log-phase culture of A. baumannii YQ4 was exposed to different concentrations of COG1410 in PBS or PBS supplemented with 50% (v/v) pooled human plasma. After incubation with shaking at 200 rpm at 37°C for 2 h, the CFU was counted on LB agar. LC99.9 indicates the lowest peptide concentration that kills ≥99.9% of bacteria. The experiments were conducted independently in triplicate.

[4] = system: Escherichia coli ATCC25922
[5] = system: Caenorhabditis elegans (Bristol N2) infected with A. baumannii YQ4; experiment: nematode killing assay, C. elegans infection model; settings: 16 μg/ml COG1410 in NGM plate, versus untreated group
[6] = system: clinically collected A. baumannii strains
Description: (§1) Strain stocks were maintained at −80°C in 10% glycerol. Bacteria were streaked on fresh plates before each experiment. Most of them were cultured in LB broth containing 10 g/L NaCl at 37°C, except for Mycobacteria in 7H9 broth and Enterococcus in BHI broth. Porphyromonas gingivalis was cultured in BHI broth supplemented with 1 μg/ml vitamin k1, 5 μg/ml hemin, and 5 mg/ml L-cysteine hydrochloride at 37°C in the anaerobic chamber. The minimal inhibitory concentrations (MICs) of antimicrobials were determined using the microdilution method in the corresponding broth.
TAble S2. Determination of bactericidal effect of COG1410 against clinically collected A. baumannii strains. MIC was measured in LB broth by microdilution method.

A. baumannii YQ4 [7] = experiment: Live/Dead BacLight SYTO-9/PI staining, confocal microscopy; type: cell-based, Acinetobacter baumannii; settings: 1× MIC COG1410 (16 μg/ml) or 5× MIC polymyxin B (80 μg/ml), 37°C, 30 min
Description: The damage to the cytoplasmic membrane was determined as described previously (Farkas et al., [2017]), with the Live/Dead BacLight bacterial viability kit (Invitrogen L7012). The log-phase culture of A. baumannii YQ4 was washed two times and suspended in PBS with the final OD600 of 0.1. […] Then, the cells were stained with 7.5 μM SYTO-9 and 30 μM propidium iodide (PI) in dark for 15 min. In total, 5 μl of culture was spotted on a clean slide coated with a thin layer of 1% agarose. The fluorescence was observed by Olympus FV3000 confocal laser scanning microscope. For SYTO-9, the excitation and emission were 483 and 503 nm, respectively. For PI, the excitation and emission were 493 and 636 nm, respectively.

[8] = system: pandrug-resistant (PDR) Acinetobacter baumannii YQ4
[9] = system: A. baumannii YQ4 preformed biofilm; experiment: biofilm eradication assay, crystal violet; type: cell-based, Acinetobacter baumannii; settings: 48 h preformed biofilm, 24 h treatment
Description: Biofilm eradication assay was performed as described previously (Mwangi et al., [2019]). A. baumannii YQ4 culture of log phase was diluted in fresh LB broth to OD600 0.01 and dispensed to a 96-well PVC plate with 200 μl per well. Plates were incubated at 37°C for 48 h and washed with PBS three times. Serial dilutions of COG1410 (0.5–128 μg/ml) were prepared using the same media, and 200 μl were dispensed into each well. Each concentration was determined in eight wells. LB without COG1410 was used as untreated control. After incubation for another 24 h, the remaining biofilm was quantified as described above. The experiments were performed in triplicate.

[10] = system: EBSL-producing Klebsiella pneumoniae YQ7; settings: microdilution method in the corresponding broth
[11] = system: MDR Mycobacterium tuberculosis 6–45; settings: microdilution method, 7H9 broth
[12] = system: EBSL-producing Proteusbacillus vulgaris YQ19; settings: microdilution method in the corresponding broth
A. baumannii YQ4 [13] = experiment: scanning electron microscopy (SEM) of treated cells; type: cell-based, Acinetobacter baumannii; settings: 1× MIC (16 μg/ml), PBS, 37°C, 30 min
Description: The log-phase culture of A. baumannii YQ4 was prepared as described above, harvested, and washed once with PBS. The pellets were suspended in PBS supplemented with 1 × COG1410 (16 μg/ml) or 1 × polymyxin B (16 μg/ml) and incubated at 37°C for 30 min. The untreated culture was used as a positive control to observe the morphology of the intact cell. […] After washing three times with PBS, the cells were post-fixed in 1% osmium at 4 °C for 1 h. After washing in distilled water for 1 h, the bacteria were dehydrated in the ascending concentrations of ethanol. Finally, these samples were transferred to ThermoFisher Quattro SEM for image collection after tert-butanol freeze-drying and sputter coating.

[14] = system: panel of Gram-positive and Gram-negative strains; experiment: MIC on a panel of strains; type: cell-based; settings: Streptococcus pneumoniae, methicillin-sensitive S. aureus, MRSA, Klebsiella pneumoniae, Pseudomonas aeruginosa
Description: The antimicrobial activity of COG1410 was determined by measuring the minimal inhibition concentration (MIC) values on a panel of Gram-positive and Gram-negative strains (Table 1).

[15] = system: Staphylococcus aureus ATCC29213; experiment: MIC, microdilution method; type: cell-based; settings: microdilution method in the corresponding broth
Description: as §1

[16] = system: Pseudomonas aeruginosa PAO1; experiment: MIC, microdilution method; type: cell-based; settings: microdilution method in the corresponding broth
Description: as §1

[17] = system: A. baumannii YQ4 intracellular ROS; experiment: ROS detection, DCFH-DA probe; type: cell-based, Acinetobacter baumannii; settings: 16 μg/ml
Description: The intracellular ROS level was determined by the Reactive Oxygen Species Assay Kit of Beyotime Biotechnology (S0033S), according to the manufacturer's instructions. The log-phase culture of A. baumannii YQ4 was harvested and washed in PBS, and then diluted 10 times, approximately 10^7 CFU/ml. In total, 1 μl of DCFH-DA (10 μM) was added to 1 ml of cell culture and incubated at 37°C for 20 min. Then the fluorescence probe was fully removed by washing with PBS three times and resuspending in PBS, followed by the addition of COG1410 (16 μg/ml) or water. Rosup (50 μg/ml) was positive control in the kit. The culture was incubated at 37°C for 30 min. The fluorescence intensity was measured by a plate reader at an excitation wavelength of 488 nm and an emission wavelength of 525 nm. The experiment was performed in duplicate.

[18] = system: Porphyromonas gingivalis ATCC33277
[19] = system: methicillin-resistant Staphylococcus aureus 14–55; settings: microdilution method in the corresponding broth
MDR Serratia mucosa YQ15 = settings: microdilution method in the corresponding broth
[20] = system: PDR Klebsiella pneumoniae 84; settings: microdilution method in the corresponding broth
[21] = system: Mycobacterium tuberculosis H37Rv; settings: microdilution method, 7H9 broth
A. baumannii YQ4 [22] = experiment: transmission electron microscopy (TEM) of treated cells; settings: 1× MIC (16 μg/ml), PBS, 37°C, 30 min
[23] = system: MDR Enterobacter cloacae 7–86; settings: microdilution method in the corresponding broth
A. baumannii YQ4 [24] = experiment: ATP leak assay; type: cell-based, Acinetobacter baumannii; settings: 16 μg/ml COG1410, 16 μg/ml polymyxin B or 32 μg/ml tigecycline (1× MIC), PBS, 37°C, 30 min
Description: ATP leak assay was performed using the Enhanced ATP Assay Kit of Beyotime ([…]) according to the manufacturer's manual. […] The supernatant was harvested and used for the measurement of ATP levels. In total, 100 μl of supernatant was mixed with 100 μl of working solution, and the chemiluminescence was measured by using a Biotek Synergy H1 plate reader. The untreated sample was set as a negative control. The experiments were performed in triplicate.

[25] = system: MDR Klebsiella oxytoca 7–85; settings: microdilution method in the corresponding broth
[26] = system: vancomycin-resistant Enterococcus faecalis 11–34; settings: vancomycin-resistant 11–34
A. baumanii YQ4 = experiment: induction of resistance through serial passage; settings: sub-MIC exposure, 55 passages
[27] = cytotoxicity assay, Cell Counting Kit 8; settings: human, L02 cells (human hepatic, normal liver cell)
Description: Briefly, 100 μl of human hepatic L02 cells was seeded in the 96-well plate with 4 × 10^3 per well in RPMI-1640 medium containing 20% FBS and incubated at 37°C in a 5% CO2 atmosphere for 24 h. The cells without exposure to peptides were used as a negative control. Then, the L02 cells were incubated with different concentrations of COG1410 for another 24 h. Then, 10 μl of CCK8 solution was added to each well. After 2 h of incubation, the optical absorbance at 450 nm was measured with a BioTek synergy H1 plate reader. […] The experiments were done in triplicate.

[28] = system: vancomycin-resistant Enterococcus faecium 11–47; settings: vancomycin-resistant 11–47
[29] = system: MDR Streptococcus pneumoniae 10–58; settings: microdilution method in the corresponding broth

In the case of `CC(=O)N[C@@H](C)C(=O)N[C@@H](CO)C(=O)NC(C)(C)C(=O)N[C@@H](CC(C)C)C(=O)N[C@@H](CCCNC(=N)N)C(=O)N[C@@H](CCCCN)C(=O)N[C@@H](CC(C)C)C(=O)NC(C)(C)C(=O)N[C@@H](CCCCN)C(=O)N[C@@H](CCCNC(=N)N)C(=O)N[C@@H](CC(C)C)C(=O)N[C@@H](CC(C)C)C(N)=O` [COG1410, acetyl-AS-Aib-LRKL-Aib-KRLL-amide] (Ac-AS[Aib]LRKL[Aib]KRLL-NH2), the MIC [1] is reported as 16 mg/L (≈ 11.4 µM), the MIC [2] is reported as 16 mg/L (≈ 11.4 µM) and the LC99.9 (A. baumannii YQ4 [3]; PBS with 50% (v/v) pooled human plasma) is reported as 8 µg/mL. It also gave an LC99.9 (A. baumannii YQ4 [3]; PBS, lowest concentration that kills ≥99.9% of bacteria) of 2 µg/mL, an MIC (Bacillus subtilis 168) of 1 mg/L (≈ 0.71 µM) and an MIC [4] of 64 mg/L (≈ 45.4 µM). For the same molecule, the “survival of infected nematodes” value [5] was “alleviated the death of infected nematodes but not statistically significantly”, the “MICs over 107 clinically collected A. baumannii strains” value ([6]; clinically collected strains) was 16 to 32 µg/mL and the MIC ([6]; strain Ab3-1 (MDR-Ab, hydrothorax and ascite), LB broth) was 32 mg/L (≈ 22.7 µM). For the same molecule, the “SYTO-9/PI staining of treated cells” value (A. baumannii YQ4 [7]) was “red fluorescence”, the “minimal bactericidal concentration (MBC)” value [8] was 16 mg/L (≈ 11.4 µM) and the mature biofilm dispersed ([9]; 1× MIC) was “approximately 46%”. For the same molecule, the biofilm eradicated ([9]; 4 × MIC) was “more than 88%”, the MIC [10] was greater than 256 mg/L and the MIC [11] was 16 mg/L (≈ 11.4 µM). For the same molecule, the MIC [12] was greater than 256 mg/L, the “cell morphology by SEM” value (A. baumannii YQ4 [13]) was “intact, with little debris observed” and the “antimicrobial activity in words” value [14] was “inactive”. For the same molecule, the MIC [15] was greater than 256 mg/L, the MIC [16] was greater than 256 mg/L and the “ROS production, in words” value ([17]; 37°C, Figure 3D) was “significantly lead to more ROS production”. The “more ROS detected by DCFH-DA probe” value ([17]; treatment for 20 min as printed) was 30%, the MIC [18] was 32 mg/L (≈ 22.7 µM) and the MIC [19] was greater than 256 mg/L. It also gave an MIC (MDR Serratia mucosa YQ15) greater than 256 mg/L, an MIC [20] greater than 256 mg/L and an MIC [21] of 16 mg/L (≈ 11.4 µM). For the same molecule, the “cell membrane integrity by TEM” value (A. baumannii YQ4 [22]) was “wrinkled and smaller compared with untreated cells”, the MIC [23] was 64 mg/L (≈ 45.4 µM) and the “ATP leak (extracellular ATP)” value (A. baumannii YQ4 [24]) was “significantly more than untreated control and tigecycline treatment group”. For the same molecule, the MIC [25] was greater than 256 mg/L, the MIC [26] was 32 mg/L (≈ 22.7 µM) and the “increase of MIC after serial passage” value (A. baumanii YQ4) was 4 fold. For the same molecule, the EC50 at 24 h [27] was 58.9 mg/L (≈ 41.8 µM), the MIC [28] was 16 mg/L (≈ 11.4 µM) and the MIC [29] was greater than 256 mg/L.
